# Columns and labels:
# Zymoseptoria tritici = experiment: Leaf blotch of wheat (SEPTTR) disease control on wheat seedlings; format: in vivo; set-up: key to SEPTTR 1DP, HV activity at 100 ppm (% control rating) / SEPTTR 3DC, HV activity at 100 ppm (% control rating) / SEPTTR disease control, 1DP / SEPTTR disease control, 3DC / SEPTTR 1DP disease control rating, HV activity / SEPTTR 3DC disease control rating, HV activity / SEPTTR 3DC, LV activity at 125.1 g/H (% Control rating) / SEPTTR 1DP, LV activity at 125.1 g/H (% Control rating) / SEPTTR 1DP disease control rating, LV activity at 125.1 g/H / SEPTTR 3DC disease control rating, LV activity at 125.1 g/H / SEPTTR 3DC disease control rating, HV activity at 100 ppm / SEPTTR 1DP disease control rating, HV activity at 100 ppm / HV activity at 100 ppm SEPTTR 3DC (disease control rating) / HV activity at 100 ppm SEPTTR 1DP (disease control rating) / LV activity at 125.1 g/H SEPTTR 1DP (disease control rating) / LV activity at 125.1 g/H SEPTTR 3DC (disease control rating): A: > 80; B: ≤ 80; C: Not Tested; D: No Activity Observed in the Reported Assay; conditions: for SEPTTR 1DP disease control rating, HV activity at 100 ppm / SEPTTR 3DC disease control rating, HV activity at 100 ppm: high volume application; for SEPTTR 1DP disease control rating, HV activity at 100 ppm: 1 day protectant; for SEPTTR 3DC disease control rating, HV activity at 100 ppm: 3 day curative; for SEPTTR 1DP, LV activity at 125.1 g/H (% Control rating) / SEPTTR 3DC, LV activity at 125.1 g/H (% Control rating) / LV activity at 125.1 g/H SEPTTR 1DP (disease control rating) / LV activity at 125.1 g/H SEPTTR 3DC (disease control rating): low volume application; for SEPTTR 1DP disease control rating, HV activity / SEPTTR 3DC disease control rating, HV activity: HV application at 100 ppm
# Puccinia triticina = experiment: Wheat brown rust (PUCCRT) disease control on wheat seedlings; format: in vivo; set-up: key to PUCCRT 3DC, HV activity at 100 ppm (% control rating) / PUCCRT disease control, 3DC / PUCCRT 1DP disease control rating, HV activity / PUCCRT 3DC disease control rating, HV activity / PUCCRT 3DC, LV activity at 125.1 g/H (% Control rating) / PUCCRT 1DP, LV activity at 125.1 g/H (% Control rating) / PUCCRT 3DC disease control rating, LV activity at 125.1 g/H / PUCCRT 1DP disease control rating, LV activity at 125.1 g/H / PUCCRT 3DC disease control rating, HV activity at 100 ppm / PUCCRT 1DP disease control rating, HV activity at 100 ppm / HV activity at 100 ppm PUCCRT 3DC (disease control rating) / LV activity at 125.1 g/H PUCCRT 1DP (disease control rating) / LV activity at 125.1 g/H PUCCRT 3DC (disease control rating): A: > 80; B: ≤ 80; C: Not Tested; D: No Activity Observed in the Reported Assay; conditions: for PUCCRT 1DP disease control rating, HV activity at 100 ppm / PUCCRT 3DC disease control rating, HV activity at 100 ppm: high volume application; for PUCCRT 1DP disease control rating, HV activity at 100 ppm: 1 day protectant; for PUCCRT 3DC disease control rating, HV activity at 100 ppm: 3 day curative; for PUCCRT 1DP, LV activity at 125.1 g/H (% Control rating) / PUCCRT 3DC, LV activity at 125.1 g/H (% Control rating) / LV activity at 125.1 g/H PUCCRT 1DP (disease control rating) / LV activity at 125.1 g/H PUCCRT 3DC (disease control rating): low volume application; for PUCCRT 1DP disease control rating, HV activity / PUCCRT 3DC disease control rating, HV activity: HV application at 100 ppm
# [1] = 1 Day Protectant, wheat leaf blotch
# [2] = 3 Day Curative, wheat leaf blotch
# [3] = 1 Day Protectant, wheat brown rust
# [4] = 3 Day Curative, wheat brown rust
compound,measurement,setting,value
COc1ccnc(C(=O)NC(Cc2ccccc2)C(=O)OC(C)C(Oc2ccccc2)C(C)C)c1O (mixture of isomers) [Cmpd 812],"SEPTTR 1DP disease control rating, HV activity at 100 ppm",Zymoseptoria tritici; 100 ppm,B (≤ 80)
same,"SEPTTR 3DC disease control rating, HV activity at 100 ppm",Zymoseptoria tritici; 100 ppm,B (≤ 80)
same,"PUCCRT 1DP disease control rating, HV activity at 100 ppm",Puccinia triticina; 100 ppm,A (> 80)
same,"PUCCRT 3DC disease control rating, HV activity at 100 ppm",Puccinia triticina; 100 ppm,A (> 80)
COc1ccnc(C(=O)NC(C)C(=O)OC(C(C)C)C(Oc2ccccc2)C(C)C)c1O (stereo not shown) [Cmpd 1031],HV activity at 100 ppm SEPTTR 1DP (disease control rating),"Zymoseptoria tritici; HV application, 100 ppm, 1 Day Protectant, wheat leaf blotch",B (≤ 80)
same,HV activity at 100 ppm SEPTTR 3DC (disease control rating),"Zymoseptoria tritici; HV application, 100 ppm, 3 Day Curative, wheat leaf blotch",D
same,HV activity at 100 ppm PUCCRT 1DP (disease control rating),"Puccinia triticina; HV application, 100 ppm, 1 Day Protectant, wheat brown rust",B (≤ 80)
same,HV activity at 100 ppm PUCCRT 3DC (disease control rating),"Puccinia triticina; HV application, 100 ppm, 3 Day Curative, wheat brown rust",D
CC[C@H](NC(=O)c1nccc(OC)c1OCOC(C)=O)C(=O)O[C@@H](C)[C@H](Oc1cc(F)cc(Cl)c1)c1ccccc1 [Cmpd 643],"SEPTTR 1DP, LV activity at 125.1 g/H (% Control rating)",Zymoseptoria tritici; 1 Day Protectant,A (> 80)
same,"SEPTTR 3DC, LV activity at 125.1 g/H (% Control rating)",Zymoseptoria tritici; 3 Day Curative,A (> 80)
same,"PUCCRT 1DP, LV activity at 125.1 g/H (% Control rating)",Puccinia triticina; 1 Day Protectant,A (> 80)
same,"PUCCRT 3DC, LV activity at 125.1 g/H (% Control rating)",Puccinia triticina; 3 Day Curative,B (≤ 80)
COc1ccnc(C(=O)NC(C)C(=O)OC(C)COc2ccccc2)c1OC(C)=O (stereo not shown) [Cmpd 524],"SEPTTR 1DP, LV activity at 125.1 g/H (% Control rating)",Zymoseptoria tritici; 1 Day Protectant,B (≤ 80)
same,"SEPTTR 3DC, LV activity at 125.1 g/H (% Control rating)",Zymoseptoria tritici; 3 Day Curative,B (≤ 80)
same,"PUCCRT 1DP, LV activity at 125.1 g/H (% Control rating)",Puccinia triticina; 1 Day Protectant,D
same,"PUCCRT 3DC, LV activity at 125.1 g/H (% Control rating)",Puccinia triticina; 3 Day Curative,B (≤ 80)
COc1ccnc(C(=O)N[C@@H](C)C(=O)O[C@H](C)[C@@H](Oc2ccccc2)C(C)C)c1O [Cmpd 349],"SEPTTR 1DP disease control rating, HV activity",Zymoseptoria tritici; [1],D
same,"SEPTTR 3DC disease control rating, HV activity",Zymoseptoria tritici; [2],B (≤ 80)
same,"PUCCRT 1DP disease control rating, HV activity",Puccinia triticina; [3],D
same,"PUCCRT 3DC disease control rating, HV activity",Puccinia triticina; [4],D
CCOc1ccnc(C(=O)N[C@@H](C)C(=O)O[C@@H](C)[C@@H](CC(C)C)Oc2ccc(Cl)c(OC)c2)c1OC(C)=O [Cmpd 1110],LV activity at 125.1 g/H SEPTTR 1DP (disease control rating),Zymoseptoria tritici; [1],D
same,LV activity at 125.1 g/H SEPTTR 3DC (disease control rating),Zymoseptoria tritici; [2],D
same,LV activity at 125.1 g/H PUCCRT 1DP (disease control rating),Puccinia triticina; [3],D
same,LV activity at 125.1 g/H PUCCRT 3DC (disease control rating),Puccinia triticina; [4],D
CC[C@@H](CCOC)[C@@H](Oc1ccccc1)[C@H](C)OC(=O)[C@H](C)NC(=O)c1nccc(OC)c1O [Cmpd 305],"SEPTTR 1DP disease control rating, HV activity",Zymoseptoria tritici; [1],A (> 80)
same,"SEPTTR 3DC disease control rating, HV activity",Zymoseptoria tritici; [2],A (> 80)
same,"PUCCRT 1DP disease control rating, HV activity",Puccinia triticina; [3],A (> 80)
same,"PUCCRT 3DC disease control rating, HV activity",Puccinia triticina; [4],A (> 80)
COc1ccnc(C(=O)NC(C)C(=O)OC(C)C(OCC(C)C)c2ccccc2)c1O (stereo not shown) [Cmpd 819],"SEPTTR 1DP disease control rating, HV activity at 100 ppm",Zymoseptoria tritici; 100 ppm,B (≤ 80)
same,"SEPTTR 3DC disease control rating, HV activity at 100 ppm",Zymoseptoria tritici; 100 ppm,D
same,"PUCCRT 1DP disease control rating, HV activity at 100 ppm",Puccinia triticina; 100 ppm,D
same,"PUCCRT 3DC disease control rating, HV activity at 100 ppm",Puccinia triticina; 100 ppm,B (≤ 80)
CCC(CC)[C@@H](Oc1ccc(-c2ccccc2)cc1)[C@H](C)OC(=O)[C@H](C)NC(=O)c1nccc(OC)c1OC(C)=O [Cmpd 607],"SEPTTR 1DP, LV activity at 125.1 g/H (% Control rating)",Zymoseptoria tritici; 1 Day Protectant,A (> 80)
same,"SEPTTR 3DC, LV activity at 125.1 g/H (% Control rating)",Zymoseptoria tritici; 3 Day Curative,B (≤ 80)
same,"PUCCRT 1DP, LV activity at 125.1 g/H (% Control rating)",Puccinia triticina; 1 Day Protectant,A (> 80)
same,"PUCCRT 3DC, LV activity at 125.1 g/H (% Control rating)",Puccinia triticina; 3 Day Curative,B (≤ 80)
C=CC[C@@H](OCC1CC1)[C@H](C)OC(=O)[C@H](C)NC(=O)c1nccc(OC)c1OC(C)=O [Cmpd 1085],LV activity at 125.1 g/H SEPTTR 1DP (disease control rating),Zymoseptoria tritici; [1],D
same,LV activity at 125.1 g/H SEPTTR 3DC (disease control rating),Zymoseptoria tritici; [2],D
same,LV activity at 125.1 g/H PUCCRT 1DP (disease control rating),Puccinia triticina; [3],D
same,LV activity at 125.1 g/H PUCCRT 3DC (disease control rating),Puccinia triticina; [4],B (≤ 80)

# Reference: patent publication US20180000085A1, “USE OF PICOLINAMIDE COMPOUNDS WITH FUNGICIDAL ACTIVITY” (DOW AGROSCIENCES LLC, priority 2014, published 2018)
